Each block holds one molecule with its values, some of them ahead of it. The source made the active and inactive calls. The rule behind the calls is not given here.
Tests used:
Aortic ring [1] = test: Relaxation of phenyphrine-induced constriction in rat aortic rings; type: functional, tissue-based; settings: Aorta
[2] = target: Nitric oxide synthase 1 (Homo sapiens) (UniProt P29475); test: Activity of tetrahydrobiopterin free nNOS assessed as increase in NO in presence of NADPH and arginine at 1 to 200 uM
[3] = target: Nitric oxide synthase 1 (Homo sapiens) (UniProt P29475); test: Activity of tetrahydrobiopterin free nNOS expressed in Escherichia coli at 1 to 100 uM
Aortic ring [4] = test: Relaxation of phenyphrine-induced constriction in rat aortic rings depleted with tetrahydrobiopterin; type: functional, tissue-based; settings: Aorta

Chain of Nitric oxide synthase 1 (Homo sapiens) (P29475 whole entry): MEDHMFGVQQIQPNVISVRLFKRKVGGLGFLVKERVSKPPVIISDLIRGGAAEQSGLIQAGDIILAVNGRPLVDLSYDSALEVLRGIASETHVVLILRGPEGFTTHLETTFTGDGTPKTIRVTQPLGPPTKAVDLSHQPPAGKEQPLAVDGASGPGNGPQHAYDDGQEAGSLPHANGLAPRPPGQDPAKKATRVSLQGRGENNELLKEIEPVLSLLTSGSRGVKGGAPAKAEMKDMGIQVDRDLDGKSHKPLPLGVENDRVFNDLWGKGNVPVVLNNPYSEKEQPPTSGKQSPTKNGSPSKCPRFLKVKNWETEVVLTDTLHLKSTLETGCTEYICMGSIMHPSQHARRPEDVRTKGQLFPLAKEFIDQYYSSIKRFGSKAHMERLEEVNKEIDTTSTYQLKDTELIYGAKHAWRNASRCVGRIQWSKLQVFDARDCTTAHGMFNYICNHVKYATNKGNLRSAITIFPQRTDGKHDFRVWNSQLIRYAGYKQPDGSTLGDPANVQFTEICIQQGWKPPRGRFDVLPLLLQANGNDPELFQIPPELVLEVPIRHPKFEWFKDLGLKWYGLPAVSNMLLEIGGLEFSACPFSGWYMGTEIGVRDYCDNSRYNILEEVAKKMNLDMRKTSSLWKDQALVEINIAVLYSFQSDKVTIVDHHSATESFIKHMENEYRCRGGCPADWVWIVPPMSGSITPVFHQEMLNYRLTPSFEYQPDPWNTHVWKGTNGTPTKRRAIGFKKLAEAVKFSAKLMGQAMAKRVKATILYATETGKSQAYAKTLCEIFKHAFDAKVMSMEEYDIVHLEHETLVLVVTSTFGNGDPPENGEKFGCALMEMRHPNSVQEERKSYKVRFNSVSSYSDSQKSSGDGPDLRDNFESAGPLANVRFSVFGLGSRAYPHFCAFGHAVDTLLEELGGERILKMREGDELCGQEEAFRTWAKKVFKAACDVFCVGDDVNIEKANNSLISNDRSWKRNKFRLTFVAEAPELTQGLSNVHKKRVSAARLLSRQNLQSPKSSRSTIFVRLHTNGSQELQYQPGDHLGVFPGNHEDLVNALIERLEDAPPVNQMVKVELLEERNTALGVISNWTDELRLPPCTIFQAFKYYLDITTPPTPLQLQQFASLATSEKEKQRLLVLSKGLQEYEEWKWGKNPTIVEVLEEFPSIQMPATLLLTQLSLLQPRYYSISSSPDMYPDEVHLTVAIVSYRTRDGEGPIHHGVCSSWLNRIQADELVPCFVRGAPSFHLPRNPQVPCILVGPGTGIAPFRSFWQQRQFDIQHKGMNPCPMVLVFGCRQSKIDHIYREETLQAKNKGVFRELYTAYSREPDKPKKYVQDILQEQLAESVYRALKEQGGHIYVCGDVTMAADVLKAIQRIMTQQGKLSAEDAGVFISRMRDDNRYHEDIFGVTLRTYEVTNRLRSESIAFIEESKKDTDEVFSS

Structure (SMILES): C[C@H](O)[C@H](O)[C@H]1CNc2nc(N)[nH]c(=O)c2N1
Activity (Aortic ring [1]): inactive

Activity [2]: Active
Structure (SMILES): CC(=O)C1Nc2c(nc(N)[nH]c2=O)NC1(C)C (centres undefined)

Activity [3]: inactive
Structure (SMILES): CC(=O)C1=Nc2c(nc(N)[nH]c2=O)NC1(C)C
Activity (Aortic ring [4]): Active

Source: ChEMBL document CHEMBL1143118, “6-Acetyl-7,7-dimethyl-5,6,7,8-tetrahydropterin is an activator of nitric oxide synthases” (Bioorg Med Chem Lett, 2008)
